This is an account of results in patent publication US5545547A, “Enzymes as agricultural chemical adjuvants” (priority 1992, dated 1996).

Data set [1] relates to soybean leaf discs. Put plainly: Uptake of radiolabeled agricultural chemicals into leaf discs. Format: in vitro ADME. Here is the method:
Leaf discs (1 cm diameter) were prepared from 9-13 day old soybean plants, and planed them on a nitrocellulose paper that was presoaked with 100 ug/ml stocptomycin in a petri dish. Radioactive chemicals were dissolved in 100 mM sodium phosphate buffer containing 0.05% TRITON X-100 surfactant [drawing 1] where n is an integer from 9 to 10 In addition to TRITON surfactant, (^14 C) uracil solution contained 0.4% ethanol, (^14 C) atrazine contained 10% ethanol (^14 C) indole acetic acid contained 2% ethanol and (^14 C) urea contained 0.2% ethanol. 5 ul of the radioactive chemical solution (9/uci/ml) was applied on the leaf disc and incubated for 5-7 hr at room temperature. After the incubation, leaf discs were rinsed 3 times with 0.025% TRITON X-100 surfactant solution and transferred into separate scintillation vials. Radioactivity taken up by each leaf disc was determined by a scintillation counter after adding 10 ml of Ecolite scintillation fluid into each vial. Ten leaf discs were used for each data point in all experiments. All radioactive chemicals were obtained from Amersham (U.S.A.). The specific activities of the chemicals were as follows:
Cutinase enzyme same as before.
Macerating enzyme, GC219, is an enzyme mixture sold by Genencor which comprises of cellulase, pectinase and hemicellulase.

Data set [2] concerns Trichoderma reesei QM6A. Briefly: Fungicide uptake in soybean plants, leaf extract rated for inhibition of fungal growth. Details: key: -no inhibition; +weak inhibition; ++=good inhibition; +++=strong inhibition. Here is the method: The difoliate leaflets of 9-13 day old soybeam plants were treated with solutions of cutinase (100 ug/ml), BENOMYL fungicide [1-(butylcarbamoyl)-2-benzimidazolecarbamic acid methyl ester] (1 mg/ml), and GC219 (12.6 mg/ml) alone and BENOMYL fungicide [1-(butylcarbamoyl)-2-benzimidazolecarbamic acid methyl ester] plus enzymes. The solutions were dissolved in 100 mM sodium phosphate, pH 7 containing 0.5% TRITON surfactant [drawing 2] where n is an integer from 9 to 10 X-100. In addition to TRITON X-100 surfactant, [drawing 3] where n is an integer from 9 to 10 the BENOMYL fungicide [1-(butylcarbamoyl)-2-benzimidazolecarbamic acid methyl ester] contained 5% Dimethyl formamide. For each experiment 100 ul of solution was applied in 5 ul droplets to each difoliate leaflet. Duplicate plants were treated in this manner. The treated plants were incubated for two hours under normal greenhouse conditions. Identical solutions as those applied to the plants were also incubated for two hours to assure chemical stability under greenhouse conditions. After the incubation, the treated leaves were cut at the petiole and rinsed with a 0.05% TRITON X-100 surfactant [drawing 4] where n is an integer from 9 to 10 solution. Both difoliates were then ground with a mortar and pestle with 1.5 ml of a 100 mM sodium phosphate, pH 7 buffer. The extract was centrifuged and the supernatant was sterile filtered through a 0.45 um disc. The supernatant was then added to CMA media containing 2% agar to yield a final volume of 10 mls. 5 mls was them poured into a single well in a 6 well culture plate. Serial dilutions were made for each solution to achieve 1:1, 1:2 and 1:4 dilution of the plant extract in the agar.
Once the agar was solidified each well was innoculated with spores of Trichoderma reesei QM6A strain. The plates were incubated at 30° C. for 24 hours and the growth of T. reesei was rated.

Data set [3] has as its system Soybeans. Put plainly: Greenhouse multispecies herbicide screen with/without P. mendocina enzyme. The class given is in vivo. As to conditions: two weeks after treatment. An excerpt: (§1) Several plant species including weeds and crops are used in these experiments.
(§2) A number of herbicides from various chemical classes were compared in a multispecies screen for percent chlorosis, necrosis and vigor reduction both with and without application of the enzyme from Pseudomonas mendocina ATCC 53552 described earlier. The herbicides were applied to various plants at the manufacturers recommended doses and at 10% and 40% of the recommended dose. Two different enzyme concentrations were used: 0.5 mg/ml (HE) and 0.05 mg/ml (LE) and applied at the rate of 40 gallons/acre. All spraying solutions were at pH 10 and contained 100 mm sodium phosphate each. Ratings were done at 6 and 12 days after the treatment. All the experiments were carried out in a greenhouse.
(§3) Chlorosis--figures represent percent of plants showing chlorosis.
(§4) Necrosis--figures represent percent of plants showing necrosis.
(§5) Vigor--figures represent percent of plants showing decreased vigor.
(§6) Phytotoxicity--figures represent the average percent of chlorosis, necrosis, and vigor for a given sample.
(§7) The method of Example 1 was used except that the enzyme was applied 2 hours prior to administering the agricultural chemical with the following results. Ratings were done two weeks after treatment

Data set [4] deals with Turnip. Described as above. As to conditions: two weeks after treatment. The class given is in vivo.
Excerpt: as §1, §2, §3, §4, §5, §6, §7

In data set [5] the test system is Pseudomonas mendocina ATCC 53552 lipase, crude preparation of Example 1(C) (includes Lipase 1 and Lipase 2). Briefly: Binding of p-nitrophenyl substrates and turnover kinetics, crude lipase preparation. Format: biochemical. As to conditions: 0.1M Tris, 0.1 wt. Triton X-100, pH 8.0, 25° C. From the text:
The recovered filtrate from the Amicon unit was concentrated to a volume of 3 liters on an Amicon ultrafiltration unit with two Romicon Pm 10 modules. The concentrated material was then dialyzed with 20 liters of 0.01M phosphate buffer, pH 7.5, to remove salts and color. Recovery at this stage averaged about 80%. Total activity for this crude preparation was 8.68×10^6 units. A unit of lipase activity is defined as the amount of enzyme which results in an increase of absorbance at 415 nm of 1.0/minute when incubated at 25° C. with 2.0 mM p-nitrophenylbutyrate in 0.1M pH 8.0 Tris-HCl buffer containing 0.1 wt. adjuvant Triton X-100.
The binding of three p-nitrophenyl substrates and the turnover kinetics were studied for the crude preparation of Example 1(C), where reaction conditions were 0.1M Tris with 0.1 wt. adjuvant Triton X-100, pH 8.0, at 25° C. The substrates were p-nitrophenyl caprylate, p-nitrophenyl laurate, and p-nitrophenyl palmitate, and the data is set out in Table

For the compound `NC(N)=O` [Urea, urea], the results for the “Uptake, Radioactivity (cpm)” value in data set [1] (pH 7) and in data set [1] (pH 10) were 785 ± 141 cpm and 398 ± 43 cpm, respectively.
In the case of `O=C(O)Cc1c[nH]c2ccccc12` [Indole Acetic Acid], in data set [1], the “Background uptake, Radioactivity (cpm)” value stood at 1292 cpm.
Consider `CCCCNC(=O)n1c(NC(=O)OC)nc2ccccc21` [BENOMYL fungicide, 1-(butylcarbamoyl)-2-benzimidazolecarbamic acid methyl ester], for which the “Inhibition of Fungal Growth” value in data set [2] (BENOMYL alone (1 mg/ml on leaves), 1:1 dilution of plant extract) was “-”; in data set [2] (BENOMYL alone, 1:2 dilution) it was “-”; in data set [2] (BENOMYL alone, 1:4 dilution) it was “-”; in data set [2] (Cutinase (100 ug/ml) and BENOMYL, 1:1 dilution) it was “+++”; in data set [2] (Cutinase and BENOMYL, 1:2 dilution), “++”; in data set [2] (Cutinase and BENOMYL, 1:4 dilution), “+”. Moreover, the “Inhibition of Fungal Growth” value in data set [2] (GC219 (12.6 mg/ml) and BENOMYL, 1:1 dilution) is listed as “++”; in data set [2] (GC219 and BENOMYL, 1:2 dilution), “+”; in data set [2] (GC219 and BENOMYL, 1:4 dilution), “-”.
`CCNc1nc(Cl)nc(NC(C)C)n1` [ATRAZINE, Atrazine]: the “CHL (chlorosis)” value in data set [3] (ATRAZINE 10% dose, High Enzyme) is given as 55%; in data set [3] (ATRAZINE 10% dose, Low Enzyme), 38%; in data set [3] (ATRAZINE 10% dose, No Enzyme) it was 10%; in data set [3] (ATRAZINE 40% dose, High Enzyme), 80%; in data set [3] (ATRAZINE 40% dose, Low Enzyme), 100%; in data set [3] (ATRAZINE 40% dose, No Enzyme), 55%. In addition, the “CHL (chlorosis)” value in data set [4] (ATRAZINE 10% dose, High Enzyme) was determined as 25%; in data set [4] (ATRAZINE 10% dose, Low Enzyme), 50%; in data set [4] (ATRAZINE 10% dose, No Enzyme), 38%; in data set [4] (ATRAZINE 40% dose, High Enzyme), 75%; in data set [4] (ATRAZINE 40% dose, Low Enzyme), 90%; in data set [4] (ATRAZINE 40% dose, No Enzyme), 70%. Moreover, the “NEC (necrosis)” value in data set [3] (ATRAZINE 10% dose, High Enzyme) worked out at 18%; in data set [3] (ATRAZINE 10% dose, Low Enzyme), 58%; in data set [3] (ATRAZINE 10% dose, No Enzyme) it was 33%; in data set [3] (ATRAZINE 40% dose, High Enzyme), 88%; in data set [3] (ATRAZINE 40% dose, Low Enzyme), 100%; in data set [3] (ATRAZINE 40% dose, No Enzyme), 63%. Also, the “NEC (necrosis)” value in data set [4] (ATRAZINE 10% dose, High Enzyme) was found to be 25%; in data set [4] (ATRAZINE 10% dose, Low Enzyme) it was 38%; in data set [4] (ATRAZINE 10% dose, No Enzyme), 23%; in data set [4] (ATRAZINE 40% dose, High Enzyme) it was 88%; in data set [4] (ATRAZINE 40% dose, Low Enzyme) it was 90%; in data set [4] (ATRAZINE 40% dose, No Enzyme), 70%. In addition, the “PHY (phytotoxicity)” value worked out at 12% in data set [3] (ATRAZINE 10% dose, High Enzyme); 48% in data set [3] (ATRAZINE 10% dose, Low Enzyme); 34% in data set [3] (ATRAZINE 10% dose, No Enzyme); 85% in data set [3] (ATRAZINE 40% dose, High Enzyme); 100% in data set [3] (ATRAZINE 40% dose, Low Enzyme); 58% in data set [3] (ATRAZINE 40% dose, No Enzyme). Besides, the “PHY (phytotoxicity)” value in data set [4] (ATRAZINE 10% dose, High Enzyme) is 25%; in data set [4] (ATRAZINE 10% dose, Low Enzyme) it was 46%; in data set [4] (ATRAZINE 10% dose, No Enzyme), 37%; in data set [4] (ATRAZINE 40% dose, High Enzyme), 84%; in data set [4] (ATRAZINE 40% dose, Low Enzyme), 90%; in data set [4] (ATRAZINE 40% dose, No Enzyme), 74%. In addition, the “VIG (vigor)” value in data set [3] (ATRAZINE 10% dose, High Enzyme) is on record as 13%; in data set [3] (ATRAZINE 10% dose, Low Enzyme), 48%; in data set [3] (ATRAZINE 10% dose, No Enzyme), 50%; in data set [3] (ATRAZINE 40% dose, High Enzyme), 88%; in data set [3] (ATRAZINE 40% dose, Low Enzyme) it was 100%; in data set [3] (ATRAZINE 40% dose, No Enzyme), 55%. The “VIG (vigor)” value in data set [4] (ATRAZINE 10% dose, High Enzyme) worked out at 25%; in data set [4] (ATRAZINE 10% dose, Low Enzyme), 50%; in data set [4] (ATRAZINE 10% dose, No Enzyme) it was 50%; in data set [4] (ATRAZINE 40% dose, High Enzyme), 88%; in data set [4] (ATRAZINE 40% dose, Low Enzyme) it was 90%; in data set [4] (ATRAZINE 40% dose, No Enzyme), 83%. For the same compound, the “Uptake, Radioactivity (cpm)” value in data set [1] (Herbicide table, atrazine, without any addition of protein) was determined as 24007 ± 3984 cpm; in data set [1] (Herbicide table, pH 7.0, Cutinase 100 ug/ml, Active Enzyme) it was 42684 ± 2333 cpm; in data set [1] (Herbicide table, pH 7.0, Cutinase 100 ug/ml, Inactive Protein Control (A126)), 24832 ± 2834 cpm; in data set [1] (Herbicide table, pH 7.0, Cutinase 200 ug/ml, Active Enzyme), 54133 ± 2874 cpm; in data set [1] (Herbicide table, pH 7.0, Cutinase 200 ug/ml, Inactive Protein Control (A126)), 31097 ± 2959 cpm.
On to `CN(C)C(=O)Nc1ccc(Cl)c(Cl)c1` [Diuron, diuron], for which the “Uptake, Radioactivity (cpm)” value was 5739 ± 1376 cpm in data set [1] (Herbicide table, Diuron, without any addition of protein); 8592 ± 803 cpm in data set [1] (Herbicide table, pH 10, Cutinase 200 ug/ml, Active Enzyme); 6878 ± 2126 cpm in data set [1] (Herbicide table, pH 10, Cutinase 200 ug/ml, Inactive Protein Control (A126)).
Take `CCCCCCCC(=O)Oc1ccc([N+](=O)[O-])cc1` [PNPC, p-nitrophenyl caprylate]: in data set [5], the Km (in general, the substrate concentration at which the rate is half of its maximum) stood at 214 µM and the Vmax was determined as 802 μmole/min/mg protein.
In the same order, the values of `CCCCCCCCCCCCCCCC(=O)Oc1ccc([N+](=O)[O-])cc1` [PNPP, p-nitrophenyl palmitate] are 183 µM and 112 μmole/min/mg protein.
In the same order, the values of `CCCCCCCCCCCC(=O)Oc1ccc([N+](=O)[O-])cc1` [PNPL, p-nitrophenyl laurate] are 167 µM and 214 μmole/min/mg protein.
Regarding `O=c1cc[nH]c(=O)[nH]1` [Uracil, uracil], the “Uptake, Radioactivity (cpm)” value in data set [1] (pH 7) was found to be 2090 ± 549 cpm; in data set [1] (pH 10), 507 ± 162 cpm.
